Patent US20220306617A1, “SUBSTITUTED 1,3-PHENYL HETEROARYL DERIVATIVES AND THEIR USE IN THE TREATMENT OF DISEASE” (NOVARTIS AG, priority 2019, published 2022)
Where a name gives a salt, the structure may show the parent alone.

Target: T1, abc isoform of human TMEM16A channel expressed in CHO cells (Homo sapiens, UniProt Q5XXA6, DEL476-501)
T1 construct: expressed in transfected cells; host or cells: CHO cells, doxycycline-inducible expression under Blasticidin/Zeocin selection
T1 sequence (Q5XXA6 with tags, fused parts or gaps isoform Q5XXA6-5 DEL539-564): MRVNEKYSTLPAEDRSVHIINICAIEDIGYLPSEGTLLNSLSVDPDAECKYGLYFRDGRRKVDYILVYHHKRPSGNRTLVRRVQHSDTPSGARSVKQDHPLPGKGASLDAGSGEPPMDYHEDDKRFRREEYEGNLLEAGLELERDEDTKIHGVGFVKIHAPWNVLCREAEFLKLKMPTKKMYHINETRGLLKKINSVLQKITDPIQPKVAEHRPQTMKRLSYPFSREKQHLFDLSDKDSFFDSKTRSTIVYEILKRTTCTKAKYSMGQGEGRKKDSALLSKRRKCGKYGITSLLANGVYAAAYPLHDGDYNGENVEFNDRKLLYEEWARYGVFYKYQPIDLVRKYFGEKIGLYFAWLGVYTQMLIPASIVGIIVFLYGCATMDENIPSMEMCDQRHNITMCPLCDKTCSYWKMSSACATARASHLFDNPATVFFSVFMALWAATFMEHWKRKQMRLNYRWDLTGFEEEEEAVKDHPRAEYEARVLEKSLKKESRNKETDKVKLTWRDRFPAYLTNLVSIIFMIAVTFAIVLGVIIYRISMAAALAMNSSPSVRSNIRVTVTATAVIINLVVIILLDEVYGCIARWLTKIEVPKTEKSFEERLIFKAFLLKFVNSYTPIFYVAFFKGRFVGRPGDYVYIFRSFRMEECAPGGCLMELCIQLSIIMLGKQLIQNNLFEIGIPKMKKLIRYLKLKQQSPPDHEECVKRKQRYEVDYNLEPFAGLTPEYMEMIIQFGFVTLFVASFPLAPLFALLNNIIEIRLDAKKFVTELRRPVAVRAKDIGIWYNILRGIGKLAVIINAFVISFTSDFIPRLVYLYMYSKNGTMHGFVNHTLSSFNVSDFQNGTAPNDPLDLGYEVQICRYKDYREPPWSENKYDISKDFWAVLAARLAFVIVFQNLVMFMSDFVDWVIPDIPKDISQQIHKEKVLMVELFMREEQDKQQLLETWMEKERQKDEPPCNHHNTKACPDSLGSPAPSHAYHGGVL
Assay: Automated patch clamping (QPatch) assay to measure TMEM16A activity in whole-cell
Assay type: cell-based
Conditions: for EC50: CHO cells expressing human TMEM16A (abc), whole-cell automated patch clamp, Hill fit, read-out: TMEM16A QPATCH assay EC50 V3 EC50; for Emax: CHO, maximum current at highest dose relative to reference potentiator at maximal concentration (upper limit) and vehicle (lower limit), read-out: TMEM16A QPATCH assay EC50 V3 Assay Window (% TMEM16A max activation)
Method in brief: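 Whole-cell currents were recorded by planar automated patch clamp from induced CHO cells (doxycycline 1 μg/mL, 18-24 h), using a −70 mV hold, +70 mV step and −90 to +70 mV ramp. Values: Hill-fitted EC50, and activation scaled between vehicle current and reference-potentiator maximum; 0.3% DMSO final.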

Structure (SMILES): CCC(CC)NC(=O)c1cnc(-c2cccc(-c3cc(C(=O)NC(Cc4ccccc4)C(=O)OC)n[nH]3)c2)o1 (centres unmarked) [Example 3.28, Methyl 2-(5-(3-(5-(Pentan-3-Ylcarbamoyl)Oxazol-2-Yl)Phenyl)-1H-Pyrazole-3-Carboxamido)-3-Phenylpropanoate]
- EC50: 350 nM
- Emax: 84%

Structure (SMILES): CCC(CC)NC(=O)c1cnc(-c2cccc(-c3cc(C(=O)NC4CCCCC4)n[nH]3)c2)o1 [Example 3.40, 2-(3-(3-(Cyclohexylcarbamoyl)-1 H-Pyrazol-5-Yl)Phenyl)-N-(Pentan-3-yl)Oxazole-5-Carboxamide]
- EC50: 70 nM
- Emax: 96%

Structure (SMILES): CCC(CC)NC(=O)c1cnc(-c2cccc(-c3cc(C(=O)NC(C)(C)CCc4ccccc4)n[nH]3)c2)o1 [Example 3.39, 2-(3-(3-((2-Methyl-4-Phenylbutan-2-Yl)Carbamoyl)-1H-Pyrazol-5-yl)Phenyl)-N-(Pentan-3-Yl)Oxazole-5-Carboxamide]
- EC50: 150 nM
- Emax: 98%

Structure (SMILES): CCC(CC)NC(=O)c1cnc(-c2cccc(-c3cc(C(=O)NCCOC(C)C)n[nH]3)c2)o1 [Example 3.9, 2-(3-(3-((2-Isopropoxyethyl)Carbamoyl)-1H-Pyrazol-5-Yl)Phenyl)-N-(Pentan-3-Yl)Oxazole-5-Carboxamide]
- EC50: 500 nM
- Emax: 96%

Structure (SMILES): CCC(CC)NC(=O)c1cnc(-c2cccc(-c3cc(C(=O)NCC4CC4)n[nH]3)c2)o1 [Example 3.32, 2-(3-(3-((Cyclopropylmethyl)Carbamoyl)-1 H-Pyrazol-5-Yl)Phenyl)-N-(Pentan-3-Yl)Oxazole-5-Carboxamide]
- EC50: 110 nM
- Emax: 55%

Structure (SMILES): COC(=O)[C@@H](NC(=O)c1cnc(-c2cccc(-c3cc(C(=O)N[C@H](C)C4CC4)n[nH]3)c2)o1)C(C)C [Example 1.5, (S)-Methyl 2-(2-(3-(3-(((R)-1-Cyclopropylethyl)Carbamoyl)-1H-Pyrazol-5-Yl)Phenyl)Oxazole-5-Carboxamido)-3-Methylbutanoate]
- EC50: 60 nM
- Emax: 98%

Structure (SMILES): CCC(CC)NC(=O)c1cnc(-c2cccc(-c3cc(C(=O)N[C@H](CCSC)C(=O)OC)n[nH]3)c2)o1 [Example 3.46, (R)-Methyl 4-(Methylthio)-2-(5-(3-(5-(Pentan-3-Ylcarbamoyl)Oxazol-2-yl)Phenyl)-1H-Pyrazole-3-Carboxamido)Butanoate]
- EC50: 800 nM
- Emax: 80%

Structure (SMILES): CCC(CC)NC(=O)c1cc(-c2cccc(-c3ncc(C(=O)N[C@H](C(=O)OC(C)(C)C)c4ccccc4)o3)c2)[nH]n1 [Example 1.37, (S)-Tert-Butyl 2-(2-(3-(3-(Pentan-3-Ylcarbamoyl)-1H-Pyrazol-5-yl)Phenyl)Oxazole-5-Carboxamido)-2-Phenylacetate]
- EC50: 200 nM
- Emax: 81%

Structure (SMILES): CCCC(CCC)NC(=O)c1cc(-c2cccc(-c3ncc(C(=O)NC(CC)CC)o3)c2)[nH]n1 [Example 3.2, 2-(3-(3-(Heptan-4-Ylcarbamoyl)-1 H-Pyrazol-5-Yl)Phenyl)-N-(Pentan-3-yl)Oxazole-5-Carboxamide]
- EC50: 30 nM
- Emax: 90%

Structure (SMILES): CCC(CC)NC(=O)c1cnc(-c2cccc(-c3nc(C(=O)NC(CC)CC)n(CC(=O)OC(C)(C)C)n3)c2)o1 [Example 15.10, Tert-Butyl 2-(5-(Pentan-3-Ylcarbamoyl)-3-(3-(5-(Pentan-3-Ylcarbamoyl)Oxazol-2-Yl)Phenyl)-1H-1,2,4-Triazol-1-Yl)Acetate]
- EC50: 80 nM
- Emax: 73%

Structure (SMILES): CCC(CC)NC(=O)c1cnc(-c2cccc(-c3cc(C(=O)NCC4CCCCC4)n[nH]3)c2)o1 [Example 3.18, 2-(3-(3-((Cyclohexylmethyl)Carbamoyl)-1H-Pyrazol-5-Yl)Phenyl)-N-(Pentan-3-Yl)Oxazole-5-Carboxamide]
- EC50: 30 nM
- Emax: 66%

Structure (SMILES): CCC(CC)NC(=O)c1cnc(-c2cccc(-c3cc(C(=O)N[C@@H](C)[C@H]4CCCO4)n[nH]3)c2)o1 (single isomer, unassigned) [3.0 (i)]
- EC50: 490 nM
- Emax: 92%

Structure (SMILES): CCC(CC)NC(=O)c1cc(-c2cccc(-c3ncc(C(=O)NC4CCCC4)o3)c2)[nH]n1 [Example 1.2]
- EC50: 800 nM
- Emax: 83%

Structure (SMILES): CCC(CC)NC(=O)c1cnc(-c2cccc(-c3cc(C(=O)NCC4(C)CC4)n[nH]3)c2)o1 [Example 3.13, 2-(3-(3-(((1-Methylcyclopropyl)Methyl)Carbamoyl)-1H-Pyrazol-5-Yl)Phenyl)-N-(Pentan-3-Yl)Oxazole-5-Carboxamide]
- EC50: 70 nM
- Emax: 70%

Structure (SMILES): CCC(CC)NC(=O)c1cc(-c2cccc(-c3ncc(C(=O)Nc4cccc(Cl)c4)o3)c2)[nH]n1 [Example 1.33, N-(3-Chlorophenyl)-2-(3-(3-(Pentan-3-Ylcarbamoyl)-1H-Pyrazol-5-yl)Phenyl)Oxazole-5-Carboxamide]
- EC50: 720 nM
- Emax: 66%

Structure (SMILES): CCC(CC)NC(=O)c1cnc(-c2cccc(-c3cc(C(=O)N[C@@H](C)C4CC4)n(CC(O)C(F)(F)F)n3)c2)o1 (stereo partly drawn) [Example 9.1, 2-(3-(5-(((S)-1-Cyclopropylethyl)Carbamoyl)-1-(3,3,3-Trifluoro-2-Hydroxypropyl)-1H-Pyrazol-3-Yl)Phenyl)-N-(Pentan-3-Yl)Oxazole-5-Carboxamide]
- EC50: 80 nM
- Emax: 155%

Structure (SMILES): CCC(NC(=O)c1cnc(-c2cccc(-c3cc(C(=O)N[C@@H](C)C4CC4)[nH]n3)c2)o1)C1CC1 (stereo partly drawn) [Example 1.48, 2-(3-(5-(((S)-1-Cyclopropylethyl)Carbamoyl)-1H-Pyrazol-3-Yl)Phenyl)-N-(1-Cyclopropylpropyl)Oxazole-5-Carboxamide]
- EC50: 70 nM
- Emax: 59%

Structure (SMILES): CCC(CC)NC(=O)c1cc(-c2cccc(-c3ncc(C(=O)NC(CC)CC)o3)c2)n[nH]1 [Example 1.20, N-(Pentan-3-Yl)-2-(3-(5-(Pentan-3-Ylcarbamoyl)-1H-Pyrazol-3-yl)Phenyl)Oxazole-5-Carboxamide]
- EC50: 290 nM
- Emax: 112%

Structure (SMILES): CCC(CC)NC(=O)c1cc(-c2cccc(-c3ncc(C(=O)N[C@@H](C)C4CCCCC4)o3)c2)[nH]n1 [Example 1.24, (S)-N-(1-Cyclohexylethyl)-2-(3-(3-(Pentan-3-Ylcarbamoyl)-1H-Pyrazol-5-yl)Phenyl)Oxazole-5-Carboxamide]
- EC50: 180 nM
- Emax: 83%

Structure (SMILES): CCC(CC)NC(=O)c1cc(-c2cccc(-c3ncc(C(=O)N[C@@H](COC(C)(C)C)C(=O)OC(C)(C)C)o3)c2)[nH]n1 [Example 1.50, (S)-Tert-Butyl 3-(Tert-Butoxy)-2-(2-(3-(3-(Pentan-3-Ylcarbamoyl)-1H-Pyrazol-5-Yl)Phenyl)Oxazole-5-Carboxamido)Propanoate Trifluoroacetate]
- EC50: 450 nM
- Emax: 115%

Structure (SMILES): CC(C)[C@H](C)NC(=O)c1cnc(-c2cccc(-c3nnc(C(=O)N[C@@H](C)C4CC4)[nH]3)c2)o1 [Example 12.11]
- EC50: 150 nM
- Emax: 80%

Structure (SMILES): C[C@H](NC(=O)c1cc(-c2cccc(-c3ncc(C(=O)N[C@H](C)C4CC4)o3)c2)nn1CC(O)C(F)(F)F)C1CC1 (stereo partly drawn) [Example 8.2, N-((R)-1-Cyclopropylethyl)-2-(3-(5-(((S)-1-Cyclopropylethyl)Carbamoyl)-1-(3,3,3-Trifluoro-2-Hydroxypropyl)-1H-Pyrazol-3-Yl)Phenyl)Oxazole-5-Carboxamide]
- EC50: 450 nM
- Emax: 119%

Structure (SMILES): CCC(CC)NC(=O)c1cnc(-c2cccc(-c3cc(C(=O)N4CCC(C)(OC)CC4)n[nH]3)c2)o1 [Example 3.47, 2-(3-(3-(4-Methoxy-4-Methylpiperidine-1-Carbonyl)-1H-Pyrazol-5-yl)Phenyl)-N-(Pentan-3-Yl)Oxazole-5-Carboxamide]
- EC50: 940 nM
- Emax: 77%

Structure (SMILES): CCC(CC)NC(=O)c1cnc(-c2cccc(-c3cc(C(=O)N[C@@H](C)COC)n[nH]3)c2)o1 [Example 3.11, (S)-2-(3-(3-((1-Methoxypropan-2-Yl)Carbamoyl)-1H-Pyrazol-5-Yl)Phenyl)-N-(Pentan-3-Yl)Oxazole-5-Carboxamide]
- EC50: 590 nM
- Emax: 91%

Structure (SMILES): CCC(CC)NC(=O)c1cnc(-c2cccc(-c3nc(C(=O)NC(CC)CC)n(CCOCCOCCOC)n3)c2)o1 [Example 15.9, 2-(3-(1-(2-(2-(2-Methoxyethoxy)Ethoxy)Ethyl)-5-(Pentan-3-Ylcarbamoyl)-1H-1,2,4-Triazol-3-Yl)Phenyl)-N-(Pentan-3-Yl)Oxazole-5-Carboxamide]
- EC50: 1000 nM
- Emax: 95%
